From ChEMBL document CHEMBL4627343, “High throughput in vivo phenotypic screening for drug repurposing: Discovery of MLR-1023 a novel insulin sensitizer and novel Lyn kinase activator with clinical proof of concept” (Bioorg Med Chem, 2020)

Experiments:
[1] = target: Tyrosine-protein kinase Lyn (Homo sapiens, UniProt P07948); experiment: […] of Lyn (unknown origin)
[2] = AUC in ip dosed […] administered twice daily; assay type: ADME, organism-based; conditions: in vivo
[3] = Cmax in ip dosed […] administered twice daily; assay type: ADME, organism-based; design: route intraperitoneal; conditions: in vivo
[4] = Tmax in ip dosed […] administered twice daily; assay type: ADME, organism-based; conditions: in vivo
[5] = Bioavailability in ip dosed […] administered twice daily; assay type: ADME, organism-based; conditions: in vivo
[6] = Toxicity in ip dosed […] administered twice daily; assay type: organism-based; conditions: in vivo
[7] = Drug uptake in human brain; assay type: ADME, tissue-based

Chain of Tyrosine-protein kinase Lyn (P07948 whole entry): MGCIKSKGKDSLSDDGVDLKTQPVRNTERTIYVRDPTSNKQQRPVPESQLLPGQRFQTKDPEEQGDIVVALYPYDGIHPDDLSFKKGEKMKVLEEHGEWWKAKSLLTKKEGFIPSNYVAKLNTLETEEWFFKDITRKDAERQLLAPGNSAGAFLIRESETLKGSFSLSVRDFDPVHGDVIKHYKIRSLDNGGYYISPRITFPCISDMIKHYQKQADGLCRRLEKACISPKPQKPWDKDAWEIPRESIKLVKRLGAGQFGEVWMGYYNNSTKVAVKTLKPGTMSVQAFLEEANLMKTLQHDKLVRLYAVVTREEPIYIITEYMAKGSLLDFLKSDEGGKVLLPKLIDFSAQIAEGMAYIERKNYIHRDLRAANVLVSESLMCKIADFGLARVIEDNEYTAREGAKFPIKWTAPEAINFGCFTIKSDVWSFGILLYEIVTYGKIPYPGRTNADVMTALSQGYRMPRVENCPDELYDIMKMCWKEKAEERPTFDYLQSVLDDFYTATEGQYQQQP

Work on `Cc1cccc(Oc2cnc(=O)[nH]c2)c1` [TOLIMIDONE] yielded an EC50 [1] of 63 nM, an AUC [2] of 4780 ng·h/mL and a Cmax [3] of 6540 ng/mL. It also gave a Tmax [4] of 15 min, a bioavailability [5] of 53.9% and an MTD [6] of 100 mg/kg. For the same compound, the Drug uptake [7] was 1.3%.
